In US20140147434A1, “NCoR1 is a Physiological Modulator of Muscle Mass and Oxidative Function” (ECOLE POLYTECHNIQUE FEDERALE DE LAUSANNE (EPFL), priority 2011, published 2014):

Experiments:
Ucp3 promoter = assay: ChIP of endogenous NCoR1 recruitment to the Ucp3 promoter PPREs in C2C12 myotubes; format: cell-based, mouse; conditions: 6 hr after addition of 100 nM GW501516
From the text: (A, B, E, F, and H) NCoR1 recruitment to the PPREs on mouse Ucp3 promoter and to the ERR-RE on human and mouse Pdk4 promoter determined by ChIP in NIH-3T3 cells transfected with an NCoR1-FLAG vector or in C2C12 myotubes. A schematic of the promoters of the Ucp3 (A) and Pdk4 (E) genes and the sequence alignment of the mouse, rat and human Pdk4 promoter is also shown to highlight the conservation of the NR1/2 (or ERR-RE) (E). Boxes indicate putative PPREs in the Ucp3 and the NR1/2, IRS, and Sp1 in the Pdk4 promoter. ChIP experiments for the Ucp3 promoter were performed in C2C12 myotubes both before and 6 hr after addition of a PPARIβ/δ (100 nM GW501516); not detected. ChIP experiments in HEK293 cells transfected with FLAG-NCoR1 and HA-ERRα vector (H). (C and G) Binding of acetylated histone 4 (H4) to the PPREs on the Ucp3 and to the NR1/2 on the Pdk4 promoters in ChIP assays, using either immortalized NCoR1^L2/L2MEFs, infected with an adenovirus either expressing GFP or Cre recombinase, or C2C12 myotubes infected with the Ad-shNCoR1 virus. Representative data is shown from 3 experiments. (D) Interaction between PPARβ/δ and NCoR1 determined by in vitro co-IP experiments from HEK293 cells, in which NCoR1-FLAG and/or V5-PPARβ/δ are expressed. […] Data are expressed as mean±SEM. […]

SMRT = SMRT mRNA in MEFs cultured with oleic acid; format: cell-based, mouse; conditions: with OA in the absence of glucose
Description: The mRNA expression levels were measured in cells and tissues using qRT-PCR (Lagouge et al., 2006).

NCoR1 [1] = assay: NCoR1 mRNA and protein in MEFs cultured with oleic acid; format: cell-based, mouse; conditions: oleic acid added to the medium (0.03 mM, 48 hr), independently of the glucose concentration
Description: (A-C) Localization of NCoR1 protein was determined either by immunofluorescence and quantified (A and B) and by western blot (C). 293T cells grown without (−) or with (+) 1 µM insulin for 1 hr were stained by DAPI or anti-NCoR1 (A). Quantification of nuclear NCoR1 is shown in (B). Nuclear and cytosolic fractions were separated from FLAG-NCoR1 transfected 293T cells after a 1 hr-stimulation without (−) or with 1 μM insulin (+) and protein levels were determined by western blotting (C). (D) mRNA levels of NCoRs and its target genes determined by qRT-PCR in MEFs cultured for 24 hr in 5 or 25 mM glucose (n=6). (E) NCoR1 protein was determined by western blotting from MEFs cultured for 24 hr in 5 or 25 mM glucose. (F) NCoR1 and SMRT mRNA was determined in MEFs cultured for 48 hr in 0, 5, and 25 mM glucose. (G) NCoR1 protein was determined by western blotting from MEFs cultured for 24 hrs in 0, 5, or 25 mM glucose. […] (I) NCoR1 protein determined by western blotting from MEFs cultured as indicated in (G). (J) NCoR1 mRNA measured by qRT-PCR in muscles of resting mice or 3 hrs after an endurance run (14-wk old; n=5), in mice that were fed for 20 wks either with HFD or CD (28-wk old; n=8), in mice that were fasted or fed for 16 hrs (14-wk old; n=10), and in 6-month or 2-year old mice (n=10). […] Data are expressed as mean±SEM. […]

NCoR1 [2] = assay: NCoR1 localization by immunofluorescence and subcellular fractionation in 293T cells; format: cell-based; conditions: one hour after stimulation with 1 μM insulin
Description: (A-C) Localization of NCoR1 protein was determined either by immunofluorescence and quantified (A and B) and by western blot (C). 293T cells grown without (−) or with (+) 1 µM insulin for 1 hr were stained by DAPI or anti-NCoR1 (A). Quantification of nuclear NCoR1 is shown in (B). Nuclear and cytosolic fractions were separated from FLAG-NCoR1 transfected 293T cells after a 1 hr-stimulation without (−) or with 1 μM insulin (+) and protein levels were determined by western blotting (C). (D) mRNA levels of NCoRs and its target genes determined by qRT-PCR in MEFs cultured for 24 hr in 5 or 25 mM glucose (n=6). (E) NCoR1 protein was determined by western blotting from MEFs cultured for 24 hr in 5 or 25 mM glucose. (F) NCoR1 and SMRT mRNA was determined in MEFs cultured for 48 hr in 0, 5, and 25 mM glucose. (G) NCoR1 protein was determined by western blotting from MEFs cultured for 24 hrs in 0, 5, or 25 mM glucose. […] (I) NCoR1 protein determined by western blotting from MEFs cultured as indicated in (G). (J) NCoR1 mRNA measured by qRT-PCR in muscles of resting mice or 3 hrs after an endurance run (14-wk old; n=5), in mice that were fed for 20 wks either with HFD or CD (28-wk old; n=8), in mice that were fasted or fed for 16 hrs (14-wk old; n=10), and in 6-month or 2-year old mice (n=10). […] Data are expressed as mean±SEM.
(A) Localization of NCoR1 is determined by the immunofluorescence experiments. […]

## Cc1cc(SCc2sc(-c3ccc(C(F)(F)F)cc3)nc2C)ccc1OCC(=O)O [GW501516]
Ucp3 promoter
  recruitment of NCoR1 to the Ucp3 promoter: robustly inhibited

## CCCCCCCC/C=C\CCCCCCCC(=O)O [oleic acid]
SMRT
  SMRT mRNA levels: only a small difference
NCoR1 [1]
  NCoR1 levels: decreased

## insulin
NCoR1 [2]
  amounts of endogenous NCoR1 or transfected FLAG-NCoR1 detected in nuclei: higher amounts
